Assays:
[1] = rat IV; mean (% CV); cited from earlier work
in vitro = in vitro ADME; conditions: rat, microsomes
[2] = tested on: COX1 synthesis in mitochondria isolated from HEK293 cells; assay: Mitochondrial in organello translation; type: biochemical, human; conditions: even up to 1 mM
[3] = mean (% CV); cited from earlier work

Structure (SMILES): CN[C@@H]1[C@H](O)[C@H](NC)[C@H]2O[C@@]3(O)C(=O)C[C@@H](C)O[C@H]3O[C@@H]2[C@H]1O [Spectinomycin, spectinomycin]
- % excreted unchanged in urine [1]: 55.3 (27.0)^2%
- CL [1]: 0.60 (11.5)^2 L/h/kg
- Vd [1]: 0.76 (45.2)^2 L/kg
- t½ [1]: 0.75 (49.3)^2 h
- remaining at 1.5 h (in vitro): 80.4%
- Inhibition of in organello mitochondrial translation [2]: did not inhibit
- Protein serum binding (Rat) % bound [3]: 12.7 (7.5)^2%

Reference: article PMC3972818 (Nature medicine, 2014)
